# Measurements published in US20250382322A1, “DIAGNOSTICS FOR DETECTING ECTO-5'-NUCLEOTIDASE (CD73)” (EBERHARD KARLS UNIVERSITÄT TÜBINGEN, priority 2022, published 2025).
# Molecular target: T1, recombinant soluble human CD73 (Homo sapiens, UniProt P21589, T376A)
# T1 construct: mature human CD73 (residues 27-549) fused to 6×His-tag at the C-terminus; 6xHis (C); made in house; host or cells: Spodoptera frugiperda Sf9 insect cells (baculovirus, pAcGP67B vector)
# T1 sequence (P21589 27-549 T376A): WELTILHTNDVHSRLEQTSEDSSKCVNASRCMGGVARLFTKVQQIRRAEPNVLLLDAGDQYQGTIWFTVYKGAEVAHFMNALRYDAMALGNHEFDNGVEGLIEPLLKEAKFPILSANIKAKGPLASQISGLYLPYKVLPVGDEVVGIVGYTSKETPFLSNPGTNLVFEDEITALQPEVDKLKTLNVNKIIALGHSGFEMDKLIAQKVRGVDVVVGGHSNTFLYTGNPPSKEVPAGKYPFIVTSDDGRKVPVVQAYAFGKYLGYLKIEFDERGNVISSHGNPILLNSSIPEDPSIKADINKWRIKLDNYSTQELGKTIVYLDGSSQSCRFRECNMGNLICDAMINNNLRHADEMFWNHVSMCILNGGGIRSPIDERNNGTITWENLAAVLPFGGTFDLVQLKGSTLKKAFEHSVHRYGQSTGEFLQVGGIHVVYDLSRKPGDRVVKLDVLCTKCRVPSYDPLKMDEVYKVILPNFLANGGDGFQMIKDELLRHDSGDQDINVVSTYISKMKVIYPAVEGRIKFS
# Test: CD73 enzyme inhibition assay with [2,8-3H]AMP, soluble human CD73
# Assay type: biochemical
# Details: [2,8-3H]AMP (5 μM) as substrate; Ki from IC50 by Cheng-Prusoff; read-out: Human soluble CD73 Ki ± SEM
# Description: Compound 2b, its precursor 1, and 20 were investigated for their CD73-inhibitory potency using tritium-labeled AMP as a substrate.^20 After incubation with CD73, non-hydrolyzed substrate and inorganic phosphate were precipitated using a solution of lanthanum chloride, and the precipitate was separated from the solution containing the reaction product [2,8-^3H]adenosine by filtration through GF/B glass fiber filters (WhatmanTM GE Healthcare, Chicago, IL, USA) using a cell harvester (M-48, Brandel, Gaitherburg, MD, USA). The filtrates (ca. 1.8 mL each) were transferred to scintillation vials, scintillation cocktail ULTIMA Gold XR (PerkinElmer, Waltham, MA, USA) was added (5 mL), and the radioactivity esd quantified by scintillation counting. CD73 preparations were (1) recombinant soluble human CD73,^13 (2) recombinant soluble rat CD73,^21 both expressed in Spodoptera frugiperda 9 (Sf) cells, (3) membrane preparations of MDA-MB-231 cells,^16 a human triple-negative breast cancer cell line with high expression of CD73,^18 and (4) membrane preparations of the 4T1.2 cell line, a mouse CD73-expressing breast cancer cell line.^22 The potency of the compounds was determined by measurements of full concentration-inhibition curves. K values were calcuated from the obtained IC50 values employing the Cheng-Prusoff equation.^23
# Human soluble CD73 was expressed in Spodoptera frugiperda (Sf9) insect cells and purified as previously described.^16 The cDNA encoding for the mature human CD73 (residues 27-549) fused to 6×His-tag at the C-terminus (Genbank accession no. NM_002526) corresponding to the natural variant T376A (P21589/VAR_022091, UniProtKB/Swiss-Prot) was ligated into the pAcGP67B vector. For transfection, 1 μl of the recombinant vector (1000 ng/μl) mixed with 2.5 μl of baculovirus genomic DNA ProEasy™ (AB vector, CA, USA) was used to transfect Sf9 cells grown in Insect-XPRESS™ medium (#BE12-7300, Lonza, Switzerland) supplemented with 10 mg/l gentamicin. […]
row,Ki,Structure (SMILES)
1,1.02 ± 0.11 nM,CCCN(Cc1ccc(-c2cn(CCF)nn2)cc1)c1nc(Cl)nc2c1ncn2[C@@H]1O[C@H](COP(=O)(O)CP(=O)(O)O)C(O)C1O (some centres unmarked) [Compound 2]
2,5.96 ± 0.85 nM,"O=C(NCCCCCCNC(=O)c1ccc2c(c1)C1(OC2=O)c2ccc(O)cc2Oc2cc(O)ccc21)c1ccc(CNc2nc(Cl)nc3c2ncn3[C@@H]2O[C@H](COP(=O)(O)CP(=O)(O)O)[C@@H](O)[C@H]2O)cc1 [Compound 20, (((((2R,3S,4R,5R)-5-(2-chloro-6-((4-((6-(3′,6′-dihydroxy-3-oxo-3H-spiro[isobenzofuran-1,9′-xanthene]-6-carboxamido)-hexyl)carbamoyl)benzyl)amino)-9H-purin-9-yl)-3,4-dihydroxytetrahydrofuran-2-yl)methoxy)(hydroxy)phosphoryl)methyl)phosphonic acid]"
